{"source": "patent US9302999B2", "about": "“Substituted triazoles as herbicides” (E. I. DU PONT DE NEMOURS AND COMPANY, priority 2012, dated 2016)", "type_in_all_cases": "in vivo", "key": {"[1]": {"system": "velvetleaf (Abutilon theophrasti)", "assay": "Test A pre-/postemergence: velvetleaf", "settings": "for Velvetleaf plant response rating: Postemergence; for Plant response rating, Velvetleaf: Preemergence", "outline": "(§1)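 Whole-plant greenhouse assay in loam/sand. Preemergence directed soil spray plus simultaneous postemergence spray (one- to two-leaf stage, 2–10 cm). Rated visually ~10 days later, 0 = no effect, 100 = complete control.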"}, "[2]": {"system": "pigweed (Amaranthus retroflexus)", "assay": "Test A pre-/postemergence: pigweed", "settings": "for Pigweed plant response rating: Postemergence; for Plant response rating, Pigweed: Preemergence", "outline": "as §1"}, "[3]": {"system": "morningglory (Ipomoea spp.)", "assay": "Test A pre-/postemergence: morningglory", "settings": "for Morningglory plant response rating: Postemergence; for Plant response rating, Morningglory: Preemergence", "outline": "as §1"}, "rice (Oryza sativa)": {"system": "rice (Oryza sativa)", "assay": "Test C flooded paddy test: rice", "settings": "scale 0 to 100 (0 no effect, 100 complete control)", "outline": "(§2)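 Plants at 2-leaf stage in pots flooded 3 cm above soil; compounds applied directly into the paddy water, depth maintained. Visual rating against controls after 13–15 days in greenhouse, scale 0 (no effect) to 100 (complete control).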"}, "[4]": {"system": "foxtail, giant (giant foxtail, Setaria faberii)", "assay": "Test A pre-/postemergence: foxtail, giant", "settings": "for Foxtail, Giant plant response rating: Postemergence; for Plant response rating, Foxtail, Giant: Preemergence", "outline": "as §1"}, "corn (Zea mays)": {"system": "corn (Zea mays)", "assay": "Test A pre-/postemergence: corn", "settings": "for Corn plant response rating: Postemergence; for Plant response rating, Corn: Preemergence", "outline": "as §1"}, "[5]": {"system": "barnyardgrass (Echinochloa crus-galli)", "assay": "Test A pre-/postemergence: barnyardgrass", "settings": "for Barnyardgrass plant response rating: Postemergence; for Plant response rating, Barnyardgrass: Preemergence", "outline": "as §1"}, "[6]": {"system": "barnyardgrass (Echinochloa crus-galli)", "assay": "Test C flooded paddy test: barnyardgrass", "settings": "scale 0 to 100 (0 no effect, 100 complete control)", "outline": "as §2"}, "[7]": {"system": "crabgrass, large (large crabgrass, Digitaria sanguinalis)", "assay": "Test A pre-/postemergence: crabgrass, large", "settings": "for Crabgrass, Large plant response rating: Postemergence; for Plant response rating, Crabgrass, Large: Preemergence", "outline": "as §1"}, "[8]": {"system": "ducksalad (Heteranthera limosa)", "assay": "Test C flooded paddy test: ducksalad", "settings": "scale 0 to 100 (0 no effect, 100 complete control)", "outline": "as §2"}, "[9]": {"system": "wheat (Triticum aestivum)", "assay": "Test A pre-/postemergence: wheat", "settings": "for Wheat plant response rating: Postemergence; for Plant response rating, Wheat: Preemergence", "outline": "as §1"}, "[10]": {"system": "sedge, umbrella (small-flower umbrella sedge, Cyperus difformis)", "assay": "Test C flooded paddy test: sedge, umbrella", "settings": "scale 0 to 100 (0 no effect, 100 complete control)", "outline": "as §2"}, "[11]": {"settings": "125 g ai/ha, 0 to 100 scale, 0 is no effect, 100 is complete control"}, "[12]": {"settings": "500 g ai/ha, visual rating on 0 to 100 scale (0 no effect, 100 complete control), approximately ten days"}, "[13]": {"settings": "125 g ai/ha, 0 to 100 scale (0 no effect, 100 complete control)"}, "[14]": {"settings": "500 g ai/ha, 0 to 100 scale, 0 is no effect, 100 is complete control"}, "[15]": {"settings": "Flood (flooded paddy test), 62 g ai/ha, visual rating after 13 to 15 days"}, "[16]": {"settings": "Flood (flooded paddy test), 125 g ai/ha, visual rating after 13 to 15 days"}, "[17]": {"settings": "Flood (flooded paddy test), 250 g ai/ha, visual rating after 13 to 15 days"}}}
{"smiles": "Cc1nn(-c2ccc(C(F)(F)F)cn2)nc1Cn1ccc(C(F)(F)F)n1", "note": "[Compound 7]", "values": [{"measurement": "Velvetleaf plant response rating", "setting": "[1]; [11]", "result": 30}, {"measurement": "Velvetleaf plant response rating", "setting": "[1]; [12]", "result": 70}, {"measurement": "Plant response rating, Velvetleaf", "setting": "[1]; [13]", "result": 30}, {"measurement": "Plant response rating, Velvetleaf", "setting": "[1]; [14]", "result": 60}, {"measurement": "Pigweed plant response rating", "setting": "[2]; [11]", "result": 100}, {"measurement": "Pigweed plant response rating", "setting": "[2]; [12]", "result": 100}, {"measurement": "Plant response rating, Pigweed", "setting": "[2]; [13]", "result": 100}, {"measurement": "Plant response rating, Pigweed", "setting": "[2]; [14]", "result": 100}, {"measurement": "Morningglory plant response rating", "setting": "[3]; [11]", "result": 90}, {"measurement": "Morningglory plant response rating", "setting": "[3]; [12]", "result": 90}, {"measurement": "Plant response rating, Morningglory", "setting": "[3]; [13]", "result": 30}, {"measurement": "Plant response rating, Morningglory", "setting": "[3]; [14]", "result": 80}, {"measurement": "Plant response rating, Rice", "setting": "rice (Oryza sativa); [15]", "result": 0}, {"measurement": "Plant response rating, Rice", "setting": "rice (Oryza sativa); [16]", "result": 0}, {"measurement": "Plant response rating, Rice", "setting": "rice (Oryza sativa); [17]", "result": 15}, {"measurement": "Plant response rating, Rice", "setting": "rice (Oryza sativa); Flood, 31 g ai/ha", "result": 0}, {"measurement": "Foxtail, Giant plant response rating", "setting": "[4]; [11]", "result": 50}, {"measurement": "Foxtail, Giant plant response rating", "setting": "[4]; [12]", "result": 90}, {"measurement": "Plant response rating, Foxtail, Giant", "setting": "[4]; [13]", "result": 90}, {"measurement": "Plant response rating, Foxtail, Giant", "setting": "[4]; [14]", "result": 100}, {"measurement": "Corn plant response rating", "setting": "corn (Zea mays); [11]", "result": 10}, {"measurement": "Corn plant response rating", "setting": "corn (Zea mays); [12]", "result": 50}, {"measurement": "Plant response rating, Corn", "setting": "corn (Zea mays); [13]", "result": 0}, {"measurement": "Plant response rating, Corn", "setting": "corn (Zea mays); [14]", "result": 30}, {"measurement": "Barnyardgrass plant response rating", "setting": "[5]; [11]", "result": 30}, {"measurement": "Barnyardgrass plant response rating", "setting": "[5]; [12]", "result": 90}, {"measurement": "Plant response rating, Barnyardgrass", "setting": "[5]; [13]", "result": 40}, {"measurement": "Plant response rating, Barnyardgrass", "setting": "[5]; [14]", "result": 100}, {"measurement": "Plant response rating, Barnyardgrass", "setting": "[6]; [15]", "result": 0}, {"measurement": "Plant response rating, Barnyardgrass", "setting": "[6]; [16]", "result": 0}, {"measurement": "Plant response rating, Barnyardgrass", "setting": "[6]; [17]", "result": 20}, {"measurement": "Plant response rating, Barnyardgrass", "setting": "[6]; Flood, 31 g ai/ha", "result": 0}, {"measurement": "Crabgrass, Large plant response rating", "setting": "[7]; [11]", "result": 70}, {"measurement": "Crabgrass, Large plant response rating", "setting": "[7]; [12]", "result": 90}, {"measurement": "Plant response rating, Crabgrass, Large", "setting": "[7]; [13]", "result": 100}, {"measurement": "Plant response rating, Crabgrass, Large", "setting": "[7]; [14]", "result": 100}, {"measurement": "Plant response rating, Ducksalad", "setting": "[8]; [15]", "result": 0}, {"measurement": "Plant response rating, Ducksalad", "setting": "[8]; [16]", "result": 30}, {"measurement": "Plant response rating, Ducksalad", "setting": "[8]; [17]", "result": 70}, {"measurement": "Plant response rating, Ducksalad", "setting": "[8]; Flood, 31 g ai/ha", "result": 0}, {"measurement": "Wheat plant response rating", "setting": "[9]; [11]", "result": 0}, {"measurement": "Wheat plant response rating", "setting": "[9]; [12]", "result": 20}, {"measurement": "Plant response rating, Wheat", "setting": "[9]; [13]", "result": 0}, {"measurement": "Plant response rating, Wheat", "setting": "[9]; [14]", "result": 0}, {"measurement": "Plant response rating, Sedge, Umbrella", "setting": "[10]; [15]", "result": 40}, {"measurement": "Plant response rating, Sedge, Umbrella", "setting": "[10]; [16]", "result": 50}, {"measurement": "Plant response rating, Sedge, Umbrella", "setting": "[10]; [17]", "result": 85}, {"measurement": "Plant response rating, Sedge, Umbrella", "setting": "[10]; Flood, 31 g ai/ha", "result": 30}]}
{"smiles": "Cc1nn(-c2ccc(F)cc2)nc1Cn1ccc(C(F)(F)F)n1", "note": "[Compound 2]", "values": [{"measurement": "Velvetleaf plant response rating", "setting": "[1]; [11]", "result": 0}, {"measurement": "Velvetleaf plant response rating", "setting": "[1]; [12]", "result": 0}, {"measurement": "Plant response rating, Velvetleaf", "setting": "[1]; [13]", "result": 0}, {"measurement": "Plant response rating, Velvetleaf", "setting": "[1]; [14]", "result": 0}, {"measurement": "Pigweed plant response rating", "setting": "[2]; [11]", "result": 30}, {"measurement": "Pigweed plant response rating", "setting": "[2]; [12]", "result": 90}, {"measurement": "Plant response rating, Pigweed", "setting": "[2]; [13]", "result": 0}, {"measurement": "Plant response rating, Pigweed", "setting": "[2]; [14]", "result": 60}, {"measurement": "Morningglory plant response rating", "setting": "[3]; [11]", "result": 10}, {"measurement": "Morningglory plant response rating", "setting": "[3]; [12]", "result": 20}, {"measurement": "Plant response rating, Morningglory", "setting": "[3]; [13]", "result": 0}, {"measurement": "Plant response rating, Morningglory", "setting": "[3]; [14]", "result": 0}, {"measurement": "Plant response rating, Rice", "setting": "rice (Oryza sativa); [15]", "result": 0}, {"measurement": "Plant response rating, Rice", "setting": "rice (Oryza sativa); [17]", "result": 0}, {"measurement": "Foxtail, Giant plant response rating", "setting": "[4]; [11]", "result": 10}, {"measurement": "Foxtail, Giant plant response rating", "setting": "[4]; [12]", "result": 20}, {"measurement": "Plant response rating, Foxtail, Giant", "setting": "[4]; [13]", "result": 10}, {"measurement": "Plant response rating, Foxtail, Giant", "setting": "[4]; [14]", "result": 50}, {"measurement": "Corn plant response rating", "setting": "corn (Zea mays); [11]", "result": 10}, {"measurement": "Corn plant response rating", "setting": "corn (Zea mays); [12]", "result": 10}, {"measurement": "Plant response rating, Corn", "setting": "corn (Zea mays); [13]", "result": 0}, {"measurement": "Plant response rating, Corn", "setting": "corn (Zea mays); [14]", "result": 0}, {"measurement": "Barnyardgrass plant response rating", "setting": "[5]; [11]", "result": 0}, {"measurement": "Barnyardgrass plant response rating", "setting": "[5]; [12]", "result": 10}, {"measurement": "Plant response rating, Barnyardgrass", "setting": "[5]; [13]", "result": 0}, {"measurement": "Plant response rating, Barnyardgrass", "setting": "[5]; [14]", "result": 10}, {"measurement": "Plant response rating, Barnyardgrass", "setting": "[6]; [15]", "result": 0}, {"measurement": "Plant response rating, Barnyardgrass", "setting": "[6]; [17]", "result": 0}, {"measurement": "Crabgrass, Large plant response rating", "setting": "[7]; [11]", "result": 10}, {"measurement": "Crabgrass, Large plant response rating", "setting": "[7]; [12]", "result": 20}, {"measurement": "Plant response rating, Crabgrass, Large", "setting": "[7]; [13]", "result": 10}, {"measurement": "Plant response rating, Crabgrass, Large", "setting": "[7]; [14]", "result": 90}, {"measurement": "Plant response rating, Ducksalad", "setting": "[8]; [15]", "result": 0}, {"measurement": "Plant response rating, Ducksalad", "setting": "[8]; [17]", "result": 0}, {"measurement": "Wheat plant response rating", "setting": "[9]; [11]", "result": 0}, {"measurement": "Wheat plant response rating", "setting": "[9]; [12]", "result": 10}, {"measurement": "Plant response rating, Wheat", "setting": "[9]; [13]", "result": 0}, {"measurement": "Plant response rating, Wheat", "setting": "[9]; [14]", "result": 0}, {"measurement": "Plant response rating, Sedge, Umbrella", "setting": "[10]; [15]", "result": 0}, {"measurement": "Plant response rating, Sedge, Umbrella", "setting": "[10]; [17]", "result": 70}]}
